Reference: ChEMBL document CHEMBL3751678, “Stabilizing G-quadruplex DNA by methylazacalix[n]pyridine through shape-complementary interaction” (Bioorg Med Chem Lett, 2016)

How the values were obtained:
Homo sapiens [1] = species: Homo sapiens; assay: Stabilization of human T12 G-quadruplex DNA assessed as change in melting temparature by circular dichroism analysis
Homo sapiens [2] = species: Homo sapiens; assay: Stabilization of human H12 G-quadruplex DNA assessed as change in melting temparature by circular dichroism analysis
[3] = Stabilization of TBA G-quadruplex DNA (unknown origin) assessed as change in melting temparature by circular dichroism analysis
[4] = Stabilization of c-kit G-quadruplex DNA (unknown origin) assessed as change in melting temparature by circular dichroism analysis
[5] = Stabilization of Bcl2 G-quadruplex DNA (unknown origin) assessed as change in melting temparature by circular dichroism analysis

Row | SMILES | ΔTm (Homo sapiens [1]) [°C] | ΔTm (Homo sapiens [2]) [°C] | ΔTm [3] [°C] | ΔTm [4] [°C] | ΔTm [5] [°C]
1 | Cn1c2cccc(n2)n(C)c2cccc(n2)n(C)c2cccc(n2)n(C)c2cccc(n2)n(C)c2cccc(n2)n(C)c2cccc1n2 | 4 | 7 | 0 | 0 | 0
2 | CN1c2cccc(n2)N(C)c2cccc(n2)N(C)c2cccc(n2)N(C)c2cccc1n2 | 0 | 0 | 0 | 0 | 0
3 | CN1c2cccc(n2)N(C)c2cccc(n2)N(C)c2cccc(n2)N(C)c2cccc(n2)N(C)c2cccc(n2)N(C)c2cccc(n2)N(C)c2cccc1n2 | 0 | 0 | 0 | 0 | 0

Now from value to compound:

Row | ΔTm (Homo sapiens [1]) [°C] | ΔTm (Homo sapiens [2]) [°C] | ΔTm [3] [°C] | ΔTm [4] [°C] | ΔTm [5] [°C] | SMILES
4 | 0 | 0 | 0 | 0 | 0 | CN1c2cccc(n2)N(C)c2cccc(n2)N(C)c2cccc(n2)N(C)c2cccc(n2)N(C)c2cccc(n2)N(C)c2cccc(n2)N(C)c2cccc(n2)N(C)c2cccc1n2
5 | 0 | 0 | 0 | 0 | 0 | CN1c2cccc(n2)N(C)c2cccc(n2)N(C)c2cccc(n2)N(C)c2cccc(n2)N(C)c2cccc(n2)N(C)c2cccc(n2)N(C)c2cccc(n2)N(C)c2cccc(n2)N(C)c2cccc1n2
